Patent publication US12084472B2 (Ardelyx, Inc., priority 2015, dated 2024)

Target: T1, human TGR5 (Homo sapiens, UniProt Q8TDU6)
T1 construct: expressed in transfected cells; host or cells: HEK293
T1 sequence (Q8TDU6 1-330): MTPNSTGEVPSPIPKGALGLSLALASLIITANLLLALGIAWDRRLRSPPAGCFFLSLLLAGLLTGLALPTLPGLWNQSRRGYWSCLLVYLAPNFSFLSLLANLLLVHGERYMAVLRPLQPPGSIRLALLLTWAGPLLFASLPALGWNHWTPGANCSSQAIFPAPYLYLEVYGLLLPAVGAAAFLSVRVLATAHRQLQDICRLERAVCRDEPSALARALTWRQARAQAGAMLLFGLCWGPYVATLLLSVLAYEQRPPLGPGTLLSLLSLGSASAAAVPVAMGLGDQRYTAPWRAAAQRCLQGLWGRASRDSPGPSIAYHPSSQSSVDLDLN
Assay: Cell-based TGR5 assay (cAMP generation, HTRF)
Settings: HEK293 cells stably transfected with human TGR5; cAMP by HTRF; 30 minutes at 37° C.; read-out: pEC50 Human TGR5 (converted)
Description: A primary cell-based assay utilized HEK293 cells stably transfected with a gene encoding human TGR5. Cells were treated with candidate TGR5 activators and assessed for increased intercellular levels of cAMP.
TGR5-mediated cAMP generation was measured using a homogeneous time resolved fluorescence (HTRF) detection method (Cisbio). Test compounds were dissolved in DMSO to a final concentration of 10 mM. Serial 3-fold dilutions of the stock solution were made in DMSO, and these solutions were diluted 100-fold into Hanks Balanced Salt Solution supplemented with 10 mM HEPES pH 7.4, 0.003% Tween 20 and 0.5 mM isobutyl methylxanthine. Five microliters of diluted test compounds were added to wells of a black 384 well plate.
Cells grown overnight at 37° C./5% CO2 were harvested and resuspended in Hanks Balanced Salt Solution containing 10 mM HEPES to a concentration of […]. Five microliters (2500 cells) were dispensed into each well of the 384 well plate containing compound dilutions and incubated at 37° C. for 30 minutes. Each compound was tested in duplicate at 12 concentrations ranging from 0.05 nM to 10 μM.
Following incubation with test compounds, cAMP was detected through the successive addition of 5 μL each of cAMP labeled with the modified allophyocyanin dye d2 (cAMP-d2) and cryptate-labeled anti-cAMP in lysis buffer, and reading HTRF per the manufacturer's instructions.
A standard curve was used to convert the raw HTRF data into [cAMP]. The concentration of cAMP was plotted against log [test compound] and the resulting curves were fit to a 3-parameter logistical equation using GraphPad Prism to determine pEC50 (the negative log of the EC50) and the magnitude of the response.

| SMILES | EC50 |
| --- | --- |
| C[C@@H](CCCCN)c1ccc(Cl)c(CNC2(c3cnccc3-c3ccccc3OC3CC3)CC2)c1 (single isomer, unassigned) [Compound I-243] | 0.126 to 1 µM |
| C[C@H](CCCCN)c1ccc(Cl)c(COC2(c3cnccc3-c3ccccc3OC3CC3)CC2)c1 (single isomer, unassigned) [Compound I-245] | 0.126 to 1 µM |
| C[C@H](CCCC(=O)O)c1ccc(Cl)c(CNC2(c3cnccc3-c3ccccc3OC3CC3)CC2)c1 (single isomer, unassigned) [Compound I-247] | < 0.1 µM |
| CC(CCCC(=O)O)c1ccc(Cl)c(CNC2(c3cnccc3-c3ccccc3OC3CC3)CC2)c1 (single isomer, unassigned) [Compound I-248] | < 0.1 µM |
| C[C@H](CCCN)c1ccc(Cl)c(CNC2(c3cnccc3-c3ccccc3OC3CC3)CC2)c1 (single isomer, unassigned) [Compound I-251] | < 0.1 µM |
| C[C@@H](CCCCNC(=O)NC[C@H](O)[C@@H](O)[C@H](O)[C@H](O)CO)c1ccc(Cl)c(CNC2(c3cnccc3-c3ccccc3OC3CC3)CC2)c1 (single isomer, unassigned) [Compound I-255] | < 0.1 µM |
| C[C@@H](CCCC(=O)NC[C@H](O)[C@@H](O)[C@H](O)[C@H](O)CO)c1ccc(Cl)c(CNC2(c3cnccc3-c3ccccc3OC3CC3)CC2)c1 (single isomer, unassigned) [Compound I-314] | < 0.1 µM |
| C[C@H](CCCC(=O)N(C)C[C@H](O)[C@@H](O)[C@H](O)[C@H](O)CO)c1ccc(Cl)c(CNC2(c3cnccc3-c3ccccc3OC3CC3)CC2)c1 (single isomer, unassigned) [Compound I-326] | < 0.1 µM |
| C[C@@H](CCCCC(=O)N(C)C[C@H](O)[C@@H](O)[C@H](O)[C@H](O)CO)c1ccc(Cl)c(CNC2(c3cnccc3-c3ccccc3OC3CC3)CC2)c1 (single isomer, unassigned) [Compound I-328] | < 0.1 µM |
| Cc1ccc([C@H](C)CCCC(=O)N(C)C[C@H](O)[C@@H](O)[C@H](O)[C@H](O)CO)cc1CNC1(c2cnccc2-c2ccccc2OC2CC2)CC1 (single isomer, unassigned) [Compound I-351] | < 0.1 µM |
| Cc1ccc([C@@H](C)CCCC(=O)N(CCS(C)(=O)=O)C[C@H](O)[C@@H](O)[C@H](O)[C@H](O)CO)cc1CNC1(c2cnccc2-c2ccccc2OC2CC2)CC1 (single isomer, unassigned) [Compound I-367] | < 0.1 µM |
| Cc1ccc([C@H](C)CCCC(=O)N(CCS(C)(=O)=O)C[C@H](O)[C@@H](O)[C@H](O)[C@H](O)CO)cc1CNC1(c2cnccc2-c2ccccc2OC2CC2)CC1 (single isomer, unassigned) [Compound I-368] | < 0.1 µM |
| O=C(CCCCc1cc(Cl)c(COC2(c3cnccc3-c3ccccc3OC3CC3)CC2)cc1Cl)N[C@@H](CN1CCOCC1)[C@@H](O)[C@H](O)[C@H](O)CO (stereo in doubt) [Compound I-160, 5-[2,5-dichloro-4-({1-[4-(2-cyclopropoxyphenyl)pyridin-3-yl]cyclopropoxy}methyl)phenyl]-N-[(2S,3R,4S,5R)-3,4,5,6-tetrahydroxy-1-(morpholin-4-yl)hexan-2-yl]pentanamide] | < 0.1 µM |

Next, values leading:

| EC50 | SMILES |
| --- | --- |
| 0.126 to 1 µM | CC(CCCCN)c1ccc(Cl)c(CNC2(c3cnccc3-c3ccccc3OC3CC3)CC2)c1 (single isomer, unassigned) [Compound I-244] |
| 0.126 to 1 µM | C[C@@H](CCCCN)c1ccc(Cl)c(COC2(c3cnccc3-c3ccccc3OC3CC3)CC2)c1 (single isomer, unassigned) [Compound I-246] |
| < 0.1 µM | C[C@@H](CCCN)c1ccc(Cl)c(CNC2(c3cnccc3-c3ccccc3OC3CC3)CC2)c1 (single isomer, unassigned) [Compound I-250] |
| < 0.1 µM | Cc1ccc(C(C)CCCC(=O)O)cc1CNC1(c2cnccc2-c2ccccc2OC2CC2)CC1 (single isomer, unassigned) [Compound I-253] |
| < 0.1 µM | C[C@H](CCCCNC(=O)NC[C@H](O)[C@@H](O)[C@H](O)[C@H](O)CO)c1ccc(Cl)c(CNC2(c3cnccc3-c3ccccc3OC3CC3)CC2)c1 (single isomer, unassigned) [Compound I-256] |
| < 0.1 µM | C[C@H](CCCCNC(=O)N[C@@H](CO)[C@@H](O)[C@H](O)[C@H](O)CO)c1ccc(Cl)c(COC2(c3cnccc3-c3ccccc3OC3CC3)CC2)c1 (single isomer, unassigned) [Compound I-264] |
| < 0.1 µM | C[C@H](CCCCNC(=O)NC[C@H](O)[C@@H](O)[C@H](O)[C@H](O)CO)c1ccc(Cl)c(COC2(c3cnccc3-c3ccccc3OC3CC3)CC2)c1 (single isomer, unassigned) [Compound I-273] |
| < 0.1 µM | C[C@@H](CCCCNC(=O)NC[C@H](O)[C@@H](O)[C@H](O)[C@H](O)CO)c1ccc(Cl)c(COC2(c3cnccc3-c3ccccc3OC3CC3)CC2)c1 (single isomer, unassigned) [Compound I-274] |
| < 0.1 µM | C[C@H](CCCC(=O)NC[C@H](O)[C@@H](O)[C@H](O)[C@H](O)CO)c1ccc(Cl)c(CNC2(c3cnccc3-c3ccccc3OC3CC3)CC2)c1 (single isomer, unassigned) [Compound I-315] |
| < 0.1 µM | C[C@@H](CCCC(=O)N(C)C[C@H](O)[C@@H](O)[C@H](O)[C@H](O)CO)c1ccc(Cl)c(CNC2(c3cnccc3-c3ccccc3OC3CC3)CC2)c1 (single isomer, unassigned) [Compound I-325] |
| < 0.1 µM | C[C@H](CCCCC(=O)N(C)C[C@H](O)[C@@H](O)[C@H](O)[C@H](O)CO)c1ccc(Cl)c(CNC2(c3cnccc3-c3ccccc3OC3CC3)CC2)c1 (single isomer, unassigned) [Compound I-329] |
| < 0.1 µM | Cc1ccc([C@@H](C)CCCC(=O)N(C)C[C@H](O)[C@@H](O)[C@H](O)[C@H](O)CO)cc1CNC1(c2cnccc2-c2ccccc2OC2CC2)CC1 (single isomer, unassigned) [Compound I-350] |
| 0.126 to 1 µM | Cc1cc(CNC2(c3cnccc3-c3ccccc3OC3CC3)CC2)c(C)cc1CCCCNC(=O)NC[C@H](O)[C@@H](O)[C@H](O)[C@H](O)CO (stereo in doubt) [Compound I-147, 1-(4-{4-[({1-[4-(2-cyclopropoxyphenyl)pyridin-3-yl]cyclopropyl}amino)methyl]-2,5-dimethylphenyl}butyl)-3-[(2S,3R,4R,5R)-2,3,4,5,6-pentahydroxyhexyl]urea] |
| < 0.1 µM | Cc1cc(COC2(c3cnccc3-c3ccccc3OC3CC3)CC2)c(C)cc1CCCCNC(=O)NC[C@H](O)[C@@H](O)[C@H](O)[C@H](O)CO (stereo in doubt) [Compound I-150, 1-{4-[4-({1-[4-(2-cyclopropoxyphenyl)pyridin-3-yl]cyclopropoxy}methyl)-2,5-dimethylphenyl]butyl}-3-[(2S,3R,4R,5R)-2,3,4,5,6-pentahydroxyhexyl]urea] |
| 0.126 to 1 µM | Cc1cc(CNC2(c3cnccc3-c3ccccc3OC3CC3)CC2)c(Cl)cc1CCCCNC(=O)NC[C@H](O)[C@@H](O)[C@H](O)[C@H](O)CO (stereo in doubt) [Compound I-151, 1-(4-{5-chloro-4-[({1-[4-(2-cyclopropoxyphenyl)pyridin-3-yl]cyclopropyl}amino)methyl]-2-methylphenyl}butyl)-3-[(2S,3R,4R,5R)-2,3,4,5,6-pentahydroxyhexyl]urea] |
| < 0.1 µM | O=C(NC[C@H](O)[C@@H](O)[C@H](O)[C@H](O)CO)NC1CCN(C(=O)CCCCc2cc(Cl)c(COC3(c4cnccc4-c4ccccc4OC4CC4)CC3)cc2Cl)CC1 (stereo in doubt) [Compound I-158, 1-(1-{5-[2,5-dichloro-4-({1-[4-(2-cyclopropoxyphenyl)pyridin-3-yl]cyclopropoxy}methyl)phenyl]pentanoyl}piperidin-4-yl)-3-[(2S,3R,4R,5R)-2,3,4,5,6-pentahydroxyhexyl]urea] |
| < 0.1 µM | CN(C[C@H](O)[C@@H](O)[C@H](O)[C@H](O)CO)C(=O)NC1CCN(C(=O)CCCCc2cc(Cl)c(COC3(c4cnccc4-c4ccccc4OC4CC4)CC3)cc2Cl)CC1 (stereo in doubt) [Compound I-159, 1-(1-{5-[2,5-dichloro-4-({1-[4-(2-cyclopropoxyphenyl)pyridin-3-yl]cyclopropoxy}methyl)phenyl]pentanoyl}piperidin-4-yl)-3-methyl-3-[(2S,3R,4R,5R)-2,3,4,5,6-pentahydroxyhexyl]urea] |
